In article PMC6943496, “Antiplasmodial Activity of Nitroaromatic Compounds: Correlation with Their Reduction Potential and Inhibitory Action on Plasmodium falciparum Glutathione Reductase” (Molecules, 2019) one finds Ki data, which are given here for 6 compounds.

The target in one experiment is T1, P. falciparum glutathione reductase (PfGR) (Plasmodium falciparum, UniProt Q94655).
T1 construct: gene GR; 2 x 55 kD homodimer with FAD
T1 sequence (Q94655 2-500): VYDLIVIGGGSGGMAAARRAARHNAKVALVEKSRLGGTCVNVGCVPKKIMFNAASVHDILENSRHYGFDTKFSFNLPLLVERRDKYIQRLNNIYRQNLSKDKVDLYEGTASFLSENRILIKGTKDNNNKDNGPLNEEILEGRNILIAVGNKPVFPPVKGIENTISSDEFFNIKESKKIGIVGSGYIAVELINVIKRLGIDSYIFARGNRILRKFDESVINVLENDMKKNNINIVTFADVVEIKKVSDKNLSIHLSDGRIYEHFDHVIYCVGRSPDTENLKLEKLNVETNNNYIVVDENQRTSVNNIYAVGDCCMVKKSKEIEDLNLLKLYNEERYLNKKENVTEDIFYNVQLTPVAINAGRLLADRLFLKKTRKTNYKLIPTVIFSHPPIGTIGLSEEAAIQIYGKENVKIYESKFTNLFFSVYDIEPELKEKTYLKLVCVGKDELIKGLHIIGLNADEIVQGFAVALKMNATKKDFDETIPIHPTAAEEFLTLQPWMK
Nature of the experiment: NADPH oxidation at […] nm, Cleland plot ([…]/kcat vs [I]). Format: biochemical.
Take `O=C(O)c1ccc([N+](=O)[O-])cc1` [compound 2, 4-Nitrobenzoic acid]: the Ki was 1200 ± 180 µM.

`O=Cc1ccc([N+](=O)[O-])cc1` [compound 7, 4-Nitrobenzaldehyde] yielded a Ki of 25 ± 4 µM.

In turn, `O=C1CN(/N=C/c2ccc([N+](=O)[O-])o2)C(=O)N1` [compound 10, Nitrofurantoin] yielded a Ki of 9 ± 1 µM.

The compound `O=[N+]([O-])c1ccc(/C=N/O)o1` [compound 11, Nifuroxime] yielded a Ki of 32 ± 5 µM.

Consider `CC(=O)c1ccc([N+](=O)[O-])cc1` [compound 4, 4-Nitroacetophenone], for which the Ki is 70 ± 11 µM.

A further experiment concerns the target T1, P. falciparum glutathione reductase (PfGR). The experiment in a line: GSH-mediated DTNB reduction at […] nm, Cleland plot. The class given is biochemical.
`NC(=O)c1cc(N2CC2)c([N+](=O)[O-])cc1[N+](=O)[O-]` [compound 3, 5-(Aziridin-1-yl)-2,4-dinitrobenzamide] yielded a Ki of 350 ± 40 µM.

For orientation: Ki means a dissociation constant, usually derived from enzyme kinetics or from competition with a known ligand. Read a low Ki as tighter binding.
